Results from PubChem BioAssay AID330 (DTP/NCI, 2004).
“And” between values parts separate entries of the source, which are not always exact repeats. Identical values can stand only once. Inconclusive results and toxic doses are left out. Rule for the calls: active = survival T/C of 150% or more; inactive = T/C below 125% in these data.

System: P388 leukemia ip, CD2F1 mice, survival T/C
Assay: NCI In Vivo Anticancer Drug Screen. Data for tumor model P388 Leukemia (intraperitoneal) in CD2F1 (CDF1) mice
Details: endpoint: median survival time, higher = longer survival
How it was run: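 Mice carrying the transplanted tumor received test compound or vehicle. Survival was recorded in each group, and the value is the treated-group measurement divided by that of the vehicle-treated control group.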

[1] = dose: 25.0 mg/kg/injection, schedule: Q01DX005 (ip), vehicle: saline
[2] = dose: 50.0 mg/kg/injection, schedule: Q01DX005 (ip), vehicle: saline with Tween-80
[3] = dose: 50.0 mg/kg/injection, schedule: Q01DX005 (ip), vehicle: saline
[4] = dose: 100.0 mg/kg/injection, schedule: Q01DX005 (ip), vehicle: saline with Tween-80
[5] = dose: 12.5 mg/kg/injection, schedule: Q01DX005 (ip), vehicle: Klucel (hydroxypropylcellulose) (HPC)
[6] = dose: 50.0 mg/kg/injection, schedule: Q01DX005 (ip), vehicle: Klucel (hydroxypropylcellulose) (HPC)
[7] = dose: 100.0 mg/kg/injection, schedule: Q01DX005 (ip), vehicle: Klucel (hydroxypropylcellulose) (HPC)
[8] = dose: 100.0 mg/kg/injection, schedule: Q04DX003 (ip), vehicle: saline with Tween-80
[9] = dose: 200.0 mg/kg/injection, schedule: Q04DX003 (ip), vehicle: saline with Tween-80
[10] = dose: 12.5 mg/kg/injection, schedule: Q04DX002 (ip), vehicle: saline with Tween-80
[11] = dose: 25.0 mg/kg/injection, schedule: Q04DX002 (ip), vehicle: saline with Tween-80
[12] = dose: 50.0 mg/kg/injection, schedule: Q04DX002 (ip), vehicle: saline with Tween-80
[13] = dose: 100.0 mg/kg/injection, schedule: Q04DX002 (ip), vehicle: saline with Tween-80
[14] = dose: 200.0 mg/kg/injection, schedule: Q04DX002 (ip), vehicle: saline with Tween-80
[15] = dose: 400.0 mg/kg/injection, schedule: Q04DX002 (ip), vehicle: saline with Tween-80
[16] = dose: 60.0 mg/kg/injection, schedule: Q01DX005 (ip), vehicle: saline with Tween-80
[17] = dose: 120.0 mg/kg/injection, schedule: Q01DX005 (ip), vehicle: saline with Tween-80
[18] = dose: 240.0 mg/kg/injection, schedule: Q01DX005 (ip), vehicle: saline with Tween-80
[19] = dose: 200.0 mg/kg/injection, schedule: Q01DX005 (ip), vehicle: Klucel (hydroxypropylcellulose) (HPC)
[20] = dose: 200.0 mg/kg/injection, schedule: Q01DX005 (ip), vehicle: saline with Tween-80
[21] = dose: 50.0 mg/kg/injection, schedule: Q01DX009 (ip), vehicle: saline with Tween-80
[22] = dose: 100.0 mg/kg/injection, schedule: Q01DX009 (ip), vehicle: saline with Tween-80
[23] = dose: 200.0 mg/kg/injection, schedule: Q01DX009 (ip), vehicle: saline with Tween-80

Measured: T/C

CCCCN(CCCC)CC(O)c1ccc(F)c2ccccc12 (stereo not drawn)
inactive: dose: 12.5 mg/kg/injection, schedule: Q01DX005 (ip), vehicle: saline 96 % of control | [1] 105 % of control | [2] 113 % of control | [3] 99 % of control | [4] 97 % of control

O=NNc1ncnc2c1ncn2Cc1ccccc1
inactive: dose: 3.12 mg/kg/injection, schedule: Q01DX009 (ip), vehicle: water 103 % of control | dose: 6.25 mg/kg/injection, schedule: Q01DX009 (ip), vehicle: water 100 % of control | dose: 12.5 mg/kg/injection, schedule: Q01DX009 (ip), vehicle: water 112 % of control | dose: 25.0 mg/kg/injection, schedule: Q01DX009 (ip), vehicle: water 112 % of control | dose: 50.0 mg/kg/injection, schedule: Q01DX009 (ip), vehicle: water 112 % of control

Cc1cccc(-n2c(C)nc3c(c(C)c(C)n3-c3ccccc3)c2=N)c1
inactive: dose: 6.25 mg/kg/injection, schedule: Q01DX005 (ip), vehicle: Klucel (hydroxypropylcellulose) (HPC) 97 % of control | [5] 100 % of control | dose: 25.0 mg/kg/injection, schedule: Q01DX005 (ip), vehicle: Klucel (hydroxypropylcellulose) (HPC) 99 % of control

Nc1ccc(-c2nc3ccccc3[nH]2)cc1
inactive: dose: 50.0 mg/kg/injection, schedule: Q04DX003 (ip), vehicle: saline 100 % of control | dose: 100.0 mg/kg/injection, schedule: Q04DX003 (ip), vehicle: saline 100 % of control | dose: 200.0 mg/kg/injection, schedule: Q04DX003 (ip), vehicle: saline 96 % of control

COc1cc2c[n+](C)c3c4cc(OC)c(OC)cc4c(OC)cc3c2cc1OC
inactive: [5] 118 % of control | [1] 109 % of control | [6] 112 % of control | [7] 118 % of control | dose: 100.0 mg/kg/injection, schedule: Q01DX005 (ip), vehicle: saline 120 % of control

NC(=S)N1N=C(c2cccc([N+](=O)[O-])c2)CCC1=O
inactive: dose: 25.0 mg/kg/injection, schedule: Q04DX003 (ip), vehicle: saline with Tween-80 100 % of control | dose: 50.0 mg/kg/injection, schedule: Q04DX003 (ip), vehicle: saline with Tween-80 103 % of control | [8] 100 % of control | [9] 101 % of control

Cc1c2c[n+]([O-])ccc2c(C)c2c1c1ccccc1n2C
inactive: [10] 101 % of control | [11] 101 % of control | [12] 103 % of control | [13] 107 % of control | [14] 113 % of control

Cc1nn(C(=S)S)c(C)c1N=Nc1ccccc1C(F)(F)F
inactive: dose: 3.12 mg/kg/injection, schedule: Q04DX002 (ip), vehicle: saline with Tween-80 99 % of control and 102 % of control | dose: 6.25 mg/kg/injection, schedule: Q04DX002 (ip), vehicle: saline with Tween-80 100 % of control | [10] 108 % of control and 94 % of control | [11] 103 % of control and 86 % of control and 89 % of control | [12] 96 % of control | [14] 89 % of control | [15] 105 % of control

Nc1nc(N)nc(Cl)n1
inactive: dose: 12.5 mg/kg/injection, schedule: Q01DX009 (ip), vehicle: Klucel (hydroxypropylcellulose) (HPC) 100 % of control and 91 % of control | dose: 25.0 mg/kg/injection, schedule: Q01DX009 (ip), vehicle: Klucel (hydroxypropylcellulose) (HPC) 101 % of control and 104 % of control | dose: 50.0 mg/kg/injection, schedule: Q01DX009 (ip), vehicle: Klucel (hydroxypropylcellulose) (HPC) 123 % of control and 91 % of control | dose: 100.0 mg/kg/injection, schedule: Q01DX009 (ip), vehicle: Klucel (hydroxypropylcellulose) (HPC) 104 % of control and 96 % of control

O=C(Nc1cc(-c2ccccc2)nn1-c1ccccc1)c1ccccc1F
inactive: [16] 103 % of control | [17] 103 % of control | [18] 111 % of control

OC(C(c1ccccc1)c1ccccn1)(C(F)(F)F)C(F)(F)F (stereo not drawn)
inactive: [8] 100 % of control | [9] 95 % of control | dose: 400.0 mg/kg/injection, schedule: Q04DX003 (ip), vehicle: saline with Tween-80 95 % of control

OCC1OC(OCC2OC(OC3(CO)OC(CO)C(O)C3O)C(O)C(O)C2O)C(O)C(O)C1O (stereo not drawn)
inactive: dose: 100.0 mg/kg/injection, schedule: Q01DX001 (ip), vehicle: saline 102 % of control | dose: 200.0 mg/kg/injection, schedule: Q01DX001 (ip), vehicle: saline 103 % of control | dose: 400.0 mg/kg/injection, schedule: Q01DX001 (ip), vehicle: saline 93 % of control

Fc1ccc(NC(=S)SCc2ccc(Cl)c(Cl)c2)c(F)c1
inactive: dose: 50.0 mg/kg/injection, schedule: Q01DX009 (ip), vehicle: suspension in saline 93 % of control | dose: 100.0 mg/kg/injection, schedule: Q01DX009 (ip), vehicle: suspension in saline 100 % of control | dose: 200.0 mg/kg/injection, schedule: Q01DX009 (ip), vehicle: suspension in saline 88 % of control

C=CC(=O)NC(CSCc1ccccc1)C(=O)O (stereo not drawn)
inactive: [6] 98 % of control | [7] 109 % of control | [19] 98 % of control

S=C1N(c2ccc(Br)cc2)C2=Nc3ccccc3SC(=C2N=Nc2ccccc2Cl)N1c1ccc(Cl)cc1
inactive: [2] 97 % of control | [4] 93 % of control | [20] 93 % of control

CN=C(C#N)c1ccccc1
inactive: [2] 100 % of control | [4] 98 % of control | [20] 99 % of control

COC1=CC2(CCN(C)C(=O)C(F)(F)F)C(=CC1=O)CCc1ccc(OC)c(O)c12 (stereo not drawn)
inactive: [13] 101 % of control | [14] 100 % of control | [15] 93 % of control

COc1ccc(-c2cnnc3c(-c4cccc(C(F)(F)F)c4)cnn23)cc1
inactive: [6] 98 % of control | [7] 93 % of control | [19] 89 % of control

Nc1c(I)cc(CC(N)C(=O)O)cc1I (stereo not drawn)
inactive: dose: 50.0 mg/kg/injection, schedule: Q01DX009 (ip), vehicle: saline 94 % of control | dose: 100.0 mg/kg/injection, schedule: Q01DX009 (ip), vehicle: saline 86 % of control | dose: 200.0 mg/kg/injection, schedule: Q01DX009 (ip), vehicle: saline 89 % of control

OC[C@@H](O)C[C@H](CO)Cc1ccc2c(c1)OCO2
inactive: [12] 96 % of control | [13] 87 % of control | [14] 99 % of control

O=C(Nc1ccccc1F)OCCCl
inactive: [16] 99 % of control | [17] 101 % of control | [18] 93 % of control

O=C(CSC1CCc2ccccc21)N/N=C/c1ccccc1O (stereo not drawn)
inactive: [6] 96 % of control | [7] 98 % of control | [19] 89 % of control

Cc1c(C)[n+]([O-])c(-c2ccc(Cl)cc2)n1O
inactive: [21] 100 % of control | [22] 100 % of control | [23] 100 % of control

CCN(CC)CCCNc1nccc2c(OC)cccc12
inactive: [1] 93 % of control | [3] 89 % of control

O=C(NCCNC(=O)Nc1ccccc1S(=O)(=O)F)Nc1ccccc1S(=O)(=O)F
inactive: [21] 96 % of control | [22] 97 % of control | [23] 93 % of control
